Data from article PMC8372318, “Automated affinity selection for rapid discovery of peptide binders” (Chemical Science, 2021).
Square brackets hold non-standard residues; d marks the D form. Ends that are not written are not given here. Peptide text beside a SMILES is read from it. * marks the point of attachment. Biotin = O=C1N[C@H]2[C@H](CS[C@H]2CCCCC(=O)*)N1; Phe(4-CH2NH2) = NCc1ccc(C[C@H](N)C(=O)O)cc1; Arg(Me2s) = CN=C(NC)NCCC[C@H](N)C(=O)O; hArg = N=C(N)NCCCC[C@H](N)C(=O)O; Cha = N[C@@H](CC1CCCCC1)C(=O)O; Lys(Me) = CNCCCC[C@H](N)C(=O)O; Cba = N[C@@H](CC1CCC1)C(=O)O; PEG4 = NCCOCCOCCOCCOCCC(=O)O; Pip = O=C(O)[C@@H]1CCCCN1; Dab = NCC[C@H](N)C(=O)O

T1: recombinant menin protein (Homo sapiens, UniProt O00255)
T1 sequence (O00255 1-610): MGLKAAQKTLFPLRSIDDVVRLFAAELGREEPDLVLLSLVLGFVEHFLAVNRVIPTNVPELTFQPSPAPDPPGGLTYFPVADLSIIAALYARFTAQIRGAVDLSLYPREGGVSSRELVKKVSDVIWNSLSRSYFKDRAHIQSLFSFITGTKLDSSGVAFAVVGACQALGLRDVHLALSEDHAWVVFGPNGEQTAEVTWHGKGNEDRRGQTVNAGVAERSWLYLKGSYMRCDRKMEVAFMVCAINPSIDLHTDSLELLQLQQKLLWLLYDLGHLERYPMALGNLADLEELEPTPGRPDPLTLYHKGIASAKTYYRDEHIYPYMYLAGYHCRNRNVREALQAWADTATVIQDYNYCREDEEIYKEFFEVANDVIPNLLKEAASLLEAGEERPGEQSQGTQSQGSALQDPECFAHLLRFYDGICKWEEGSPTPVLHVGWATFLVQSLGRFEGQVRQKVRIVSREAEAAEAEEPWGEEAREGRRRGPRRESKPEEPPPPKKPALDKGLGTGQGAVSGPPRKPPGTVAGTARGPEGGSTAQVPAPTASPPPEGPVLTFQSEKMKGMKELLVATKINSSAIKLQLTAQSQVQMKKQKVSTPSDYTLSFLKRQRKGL

T2: tMBM3 (truncated MLL menin binding motif) (Homo sapiens, also: additional C-terminal Arg)
T2 chain: RFPARPR


Key:
[1] = biological target: T1, recombinant menin protein; test: Bio-layer interferometry peptide-binding validation (Octet RED96)
human ACE2 = human ACE2 (Homo sapiens, UniProt Q9BYF1); format: binding; details: highest tested peptide concentration 1000 nM; also biosensor alone
[2] = biological target: T2, tMBM3 (truncated MLL menin binding …); test: BLI

Sequence of human ACE2 (Q9BYF1 18-805): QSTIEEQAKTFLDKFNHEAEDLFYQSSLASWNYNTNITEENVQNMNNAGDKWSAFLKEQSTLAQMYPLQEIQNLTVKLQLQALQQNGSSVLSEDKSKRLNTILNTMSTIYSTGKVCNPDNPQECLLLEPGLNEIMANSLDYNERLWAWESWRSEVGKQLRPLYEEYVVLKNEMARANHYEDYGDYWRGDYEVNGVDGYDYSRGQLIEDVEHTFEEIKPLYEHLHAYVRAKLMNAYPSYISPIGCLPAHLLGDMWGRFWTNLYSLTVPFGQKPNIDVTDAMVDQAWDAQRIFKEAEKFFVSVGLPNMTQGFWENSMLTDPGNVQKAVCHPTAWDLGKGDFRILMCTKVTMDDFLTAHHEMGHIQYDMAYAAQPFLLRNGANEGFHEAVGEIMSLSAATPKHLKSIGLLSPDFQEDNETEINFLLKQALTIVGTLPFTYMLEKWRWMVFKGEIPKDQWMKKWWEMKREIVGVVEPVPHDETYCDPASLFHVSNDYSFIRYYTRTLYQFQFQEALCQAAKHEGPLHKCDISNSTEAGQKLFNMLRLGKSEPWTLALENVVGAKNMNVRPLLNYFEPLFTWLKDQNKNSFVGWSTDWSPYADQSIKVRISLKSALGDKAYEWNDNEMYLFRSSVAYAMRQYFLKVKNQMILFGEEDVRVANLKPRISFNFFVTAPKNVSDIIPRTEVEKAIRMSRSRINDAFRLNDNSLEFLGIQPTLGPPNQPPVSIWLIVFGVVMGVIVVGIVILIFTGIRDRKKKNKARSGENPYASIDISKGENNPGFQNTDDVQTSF

Kd [1] [nM]	Molecule	other results
30	C[C@H](NC(=O)[C@@H]1CCCN1C(=O)[C@H](Cc1ccccc1)NC(=O)[C@H](CCCNC(=N)N)NC(=O)[C@H](Cc1c[nH]c2ccccc12)NC(=O)[C@@H](N)CCCNC(=N)N)C(=O)N[C@@H](CCCNC(=N)N)C(=O)N1CCC[C@H]1C(N)=O [MBM1, reference compound] (H-RWRFPARP-NH2)	
> 3800	C[C@H](NC(=O)[C@@H]1CCCN1C(=O)[C@H](Cc1ccccc1)NC(=O)[C@H](CCCNC(=N)N)NC(=O)CCOCCOCCOCCOCCNC(=O)CCCC[C@@H]1SC[C@@H]2NC(=O)N[C@@H]21)C(=O)N[C@@H](CCCNC(=N)N)C(=O)N1CCC[C@H]1C(=O)N[C@@H](CCCNC(=N)N)C(N)=O [tMBM3] ({Biotin-PEG4}-RFPARPR-NH2)	KD (nM), apparent dissociation constant [1]: 3800 nM
40	CC(C)[C@H](NC(=O)[C@@H]1CCCCN1C(=O)[C@H](CC1CCCCC1)NC(=O)[C@H](CCCNC(=N)N)NC(=O)CCOCCOCCOCCOCCNC(=O)CCCC[C@@H]1SC[C@@H]2NC(=O)N[C@@H]21)C(=O)N[C@@H](CCCNC(=N)N)C(=O)N1CCCC[C@H]1C(=O)N[C@@H](CCCNC(=N)N)C(N)=O [hit 6] ({Biotin-PEG4}-R[Cha][Pip]VR[Pip]R-NH2)	
67	C[C@H](NC(=O)[C@@H]1CCCN1C(=O)[C@H](Cc1ccccc1)NC(=O)[C@H](CCCNC(=N)N)NC(=O)[C@H](Cc1c[nH]c2ccccc12)NC(=O)CCOCCOCCOCCOCCNC(=O)CCCC[C@@H]1SC[C@@H]2NC(=O)N[C@@H]21)C(=O)N[C@@H](CCCNC(=N)N)C(=O)N1CCC[C@H]1C(=O)N[C@@H](CCCNC(=N)N)C(N)=O [tMBM2] ({Biotin-PEG4}-WRFPARPR-NH2)	
14	C[C@H](NC(=O)[C@@H]1CCCN1C(=O)[C@H](Cc1ccccc1)NC(=O)[C@H](CCCNC(=N)N)NC(=O)[C@H](Cc1c[nH]c2ccccc12)NC(=O)[C@@H](N)CCCNC(=N)N)C(=O)N[C@@H](CCCNC(=N)N)C(=O)N1CCC[C@H]1C(=O)N[C@@H](CCCNC(=N)N)C(N)=O [tMBM1] (H-RWRFPARPR-NH2)	
	YPYDVPDYAK [HA tag]	capture by control protein (human ACE2): not captured
34	CC(C)[C@H](NC(=O)[C@@H]1CCCCN1C(=O)[C@H](CC1CCC1)NC(=O)[C@H](CCCNC(=N)N)NC(=O)CCOCCOCCOCCOCCNC(=O)CCCC[C@@H]1SC[C@@H]2NC(=O)N[C@@H]21)C(=O)N[C@@H](CCCNC(=N)N)C(=O)N1CCCC[C@H]1C(=O)N[C@@H](CCCNC(=N)N)C(N)=O [hit 1] ({Biotin-PEG4}-R[Cba][Pip]VR[Pip]R-NH2)	
20	CN=C(NC)NCCC[C@H](NC(=O)[C@@H](NC(=O)[C@@H]1CCCCN1C(=O)[C@H](CC1CCCCC1)NC(=O)[C@H](CCCCN)NC(=O)CCOCCOCCOCCOCCNC(=O)CCCC[C@@H]1SC[C@@H]2NC(=O)N[C@@H]21)C(C)C)C(=O)N1CCCC[C@H]1C(=O)N[C@@H](CCCNC(=N)N)C(N)=O [hit 6-1] ({Biotin-PEG4}-K[Cha][Pip]V[Arg(Me2s)][Pip]R-NH2)	
34	CC(C)[C@H](NC(=O)[C@@H]1CCCCN1C(=O)[C@H](CC1CCCCC1)NC(=O)[C@H](CCN)NC(=O)CCOCCOCCOCCOCCNC(=O)CCCC[C@@H]1SC[C@@H]2NC(=O)N[C@@H]21)C(=O)N[C@@H](CCCCNC(=N)N)C(=O)N1CCCC[C@H]1C(=O)N[C@@H](CCCNC(=N)N)C(N)=O [hit 6-3] ({Biotin-PEG4}-[Dab][Cha][Pip]V[hArg][Pip]R-NH2)	
110	CNCCCC[C@H](NC(=O)[C@@H](NC(=O)[C@@H]1CCCCN1C(=O)[C@H](CC1CCCCC1)NC(=O)[C@H](Cc1c[nH]cn1)NC(=O)CCOCCOCCOCCOCCNC(=O)CCCC[C@@H]1SC[C@@H]2NC(=O)N[C@@H]21)C(C)C)C(=O)N1CCCC[C@H]1C(=O)N[C@@H](CCCNC(=N)N)C(N)=O [hit 6-5] ({Biotin-PEG4}-H[Cha][Pip]V[Lys(Me)][Pip]R-NH2)	
87	CNCCCC[C@H](NC(=O)[C@@H](NC(=O)[C@@H]1CCCCN1C(=O)[C@H](CC1CCCCC1)NC(=O)[C@H](CCCCN)NC(=O)CCOCCOCCOCCOCCNC(=O)CCCC[C@@H]1SC[C@@H]2NC(=O)N[C@@H]21)C(C)C)C(=O)N1CCCC[C@H]1C(=O)N[C@@H](CCCNC(=N)N)C(N)=O [hit 6-4] ({Biotin-PEG4}-K[Cha][Pip]V[Lys(Me)][Pip]R-NH2)	
45	CC(C)[C@H](NC(=O)[C@@H]1CCCCN1C(=O)[C@H](CC1CCCCC1)NC(=O)[C@H](CCN)NC(=O)CCOCCOCCOCCOCCNC(=O)CCCC[C@@H]1SC[C@@H]2NC(=O)N[C@@H]21)C(=O)N[C@@H](CCCNC(=N)N)C(=O)N1CCCC[C@H]1C(=O)N[C@@H](Cc1ccc(CN)cc1)C(N)=O [hit 6-2] ({Biotin-PEG4}-[Dab][Cha][Pip]VR[Pip][Phe(4-CH2NH2)]-NH2)	
	menin (protein) MGLKAAQKTLFPLRSIDDVVRLFAAELGREEPDLVLLSLVLGFVEHFLAVNRVIPTNVPELTFQPSPAPDPPGGLTYFPVADLSIIAALYARFTAQIRGAVDLSLYPREGGVSSRELVKKVSDVIWNSLSRSYFKDRAHIQSLFSFITGTKLDSSGVAFAVVGACQALGLRDVHLALSEDHAWVVFGPNGEQTAEVTWHGKGNEDRRGQTVNAGVAERSWLYLKGSYMRCDRKMEVAFMVCAINPSIDLHTDSLELLQLQQKLLWLLYDLGHLERYPMALGNLADLEELEPTPGRPDPLTLYHKGIASAKTYYRDEHIYPYMYLAGYHCRNRNVREALQAWADTATVIQDYNYCREDEEIYKEFFEVANDVIPNLLKEAASLLEAGEERPGEQSQGTQSQGSALQDPECFAHLLRFYDGICKWEEGSPTPVLHVGWATFLVQSLGRFEGQVRQKVRIVSREAEAAEAEEPWGEEAREGRRRGPRRESKPEEPPPPKKPALDKGLGTGQGAVSGPPRKPPGTVAGTARGPEGGSTAQVPAPTASPPPEGPVLTFQSEKMKGMKELLVATKINSSAIKLQLTAQSQVQMKKQKVSTPSDYTLSFLKRQRKGL	Kd [2]: > 3800 nM
